Consider 4 compounds from PubChem BioAssay (NCI).

Molecules are shown by their SMILES.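 Cultured in 96-well plates, cells were exposed to test compound for 48 hours across five concentrations. TGI denotes the concentration required for complete inhibition of growth.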

One assay relates to DU-145 prostate. Description: NCI anticancer screen, dose series, 48 h.
As to `CC(=O)O/C(=C1\C[C@H]2[C@@H]3CC=C4C[C@@H](OC(C)=O)CC[C@]4(C)[C@H]3CC[C@]2(C)C1=O)C(F)(F)F`, the TGI was 25.2 µM.

The subject of a further assay is MDA-N. Briefly: NCI anticancer screen, dose series, 48 h.
Consider `CC(=O)O/C(=C1\C[C@H]2[C@@H]3CC=C4C[C@@H](OC(C)=O)CC[C@]4(C)[C@H]3CC[C@]2(C)C1=O)C(F)(F)F`, for which the TGI turned out to be 14.9 µM.

Another assay concerns HT29 colon. Description: NCI anticancer screen, dose series, 48 h.
`O=[N+]([O-])c1ccc(N2N=C(c3ccc(NCc4nc5ccccc5[nH]4)cc3)CC2c2ccco2)cc1` (stereo not drawn) yielded a TGI of 90.6 µM.

As for `CC(=O)O/C(=C1\C[C@H]2[C@@H]3CC=C4C[C@@H](OC(C)=O)CC[C@]4(C)[C@H]3CC[C@]2(C)C1=O)C(F)(F)F`, the TGI was 29.2 µM.

Turning to `CCCN1CN(C(C(=O)N[C@@H]2C(=O)N3C2SC(C)(C)C3C(=O)O)c2ccc(O)cc2)CSC1=S` (stereo partly drawn), the TGI is > 100 µM.

`O=P1(c2ccccc2)CCCCC1`: the TGI was > 100 µM.

The next assay has as its system M19-MEL melanoma. Description: NCI anticancer screen, dose series, 48 h.
As to `O=[N+]([O-])c1ccc(N2N=C(c3ccc(NCc4nc5ccccc5[nH]4)cc3)CC2c2ccco2)cc1` (stereo not drawn), the TGI is > 100 µM.

For the compound `CCCN1CN(C(C(=O)N[C@@H]2C(=O)N3C2SC(C)(C)C3C(=O)O)c2ccc(O)cc2)CSC1=S` (stereo partly drawn), the TGI was > 100 µM.

In the next assay the test system is LOX IMVI melanoma. Briefly: NCI anticancer screen, dose series, 48 h.
`O=[N+]([O-])c1ccc(N2N=C(c3ccc(NCc4nc5ccccc5[nH]4)cc3)CC2c2ccco2)cc1` (stereo not drawn) yielded a TGI of 41.6 µM.

`CC(=O)O/C(=C1\C[C@H]2[C@@H]3CC=C4C[C@@H](OC(C)=O)CC[C@]4(C)[C@H]3CC[C@]2(C)C1=O)C(F)(F)F` had a TGI of 5.17 µM.

On to `CCCN1CN(C(C(=O)N[C@@H]2C(=O)N3C2SC(C)(C)C3C(=O)O)c2ccc(O)cc2)CSC1=S` (stereo partly drawn), for which the TGI was > 100 µM.

On to `O=P1(c2ccccc2)CCCCC1`, for which the TGI was > 100 µM.

For another assay, the system named is TK-10 renal. Description: NCI anticancer screen, dose series, 48 h.
In the case of `O=[N+]([O-])c1ccc(N2N=C(c3ccc(NCc4nc5ccccc5[nH]4)cc3)CC2c2ccco2)cc1` (stereo not drawn), the TGI was > 100 µM.

`CC(=O)O/C(=C1\C[C@H]2[C@@H]3CC=C4C[C@@H](OC(C)=O)CC[C@]4(C)[C@H]3CC[C@]2(C)C1=O)C(F)(F)F` registered a TGI of 32.4 µM.

Regarding `CCCN1CN(C(C(=O)N[C@@H]2C(=O)N3C2SC(C)(C)C3C(=O)O)c2ccc(O)cc2)CSC1=S` (stereo partly drawn), the TGI is > 100 µM.

As for `O=P1(c2ccccc2)CCCCC1`, the TGI was > 100 µM.

A further assay has as its system UACC-257 melanoma. Briefly: NCI anticancer screen, dose series, 48 h.
`CC(=O)O/C(=C1\C[C@H]2[C@@H]3CC=C4C[C@@H](OC(C)=O)CC[C@]4(C)[C@H]3CC[C@]2(C)C1=O)C(F)(F)F` yielded a TGI of 15.1 µM.

Turning to `CCCN1CN(C(C(=O)N[C@@H]2C(=O)N3C2SC(C)(C)C3C(=O)O)c2ccc(O)cc2)CSC1=S` (stereo partly drawn), the TGI was > 100 µM.

For `O=P1(c2ccccc2)CCCCC1`, the TGI was > 100 µM.

A further assay deals with HL-60(TB) leukemia. Briefly: NCI anticancer screen, dose series, 48 h.
`O=[N+]([O-])c1ccc(N2N=C(c3ccc(NCc4nc5ccccc5[nH]4)cc3)CC2c2ccco2)cc1` (stereo not drawn) came in with a TGI of 48.9 µM.

In turn, `CC(=O)O/C(=C1\C[C@H]2[C@@H]3CC=C4C[C@@H](OC(C)=O)CC[C@]4(C)[C@H]3CC[C@]2(C)C1=O)C(F)(F)F` registered a TGI of 13.6 µM.

Consider `CCCN1CN(C(C(=O)N[C@@H]2C(=O)N3C2SC(C)(C)C3C(=O)O)c2ccc(O)cc2)CSC1=S` (stereo partly drawn), for which the TGI is > 100 µM.

As to `O=P1(c2ccccc2)CCCCC1`, the TGI is > 100 µM.

Another assay deals with SK-MEL-2 melanoma. Description: NCI anticancer screen, dose series, 48 h.
Turning to `CC(=O)O/C(=C1\C[C@H]2[C@@H]3CC=C4C[C@@H](OC(C)=O)CC[C@]4(C)[C@H]3CC[C@]2(C)C1=O)C(F)(F)F`, the TGI was 17.2 µM.

For `CCCN1CN(C(C(=O)N[C@@H]2C(=O)N3C2SC(C)(C)C3C(=O)O)c2ccc(O)cc2)CSC1=S` (stereo partly drawn), the TGI was > 100 µM.

In the case of `O=P1(c2ccccc2)CCCCC1`, the TGI was > 100 µM.

For another assay, the system named is HCT-15 colon. Description: NCI anticancer screen, dose series, 48 h.
For `O=[N+]([O-])c1ccc(N2N=C(c3ccc(NCc4nc5ccccc5[nH]4)cc3)CC2c2ccco2)cc1` (stereo not drawn), the TGI was found to be 84.9 µM.

In the case of `CC(=O)O/C(=C1\C[C@H]2[C@@H]3CC=C4C[C@@H](OC(C)=O)CC[C@]4(C)[C@H]3CC[C@]2(C)C1=O)C(F)(F)F`, the TGI stood at 17.6 µM.

In the case of `CCCN1CN(C(C(=O)N[C@@H]2C(=O)N3C2SC(C)(C)C3C(=O)O)c2ccc(O)cc2)CSC1=S` (stereo partly drawn), the TGI was > 100 µM.

In the case of `O=P1(c2ccccc2)CCCCC1`, the TGI is > 100 µM.

The test system of another assay is LXFL 529 NSCLC. Description: NCI anticancer screen, dose series, 48 h.
For the compound `O=[N+]([O-])c1ccc(N2N=C(c3ccc(NCc4nc5ccccc5[nH]4)cc3)CC2c2ccco2)cc1` (stereo not drawn), the TGI stood at 38.5 µM.

With `CCCN1CN(C(C(=O)N[C@@H]2C(=O)N3C2SC(C)(C)C3C(=O)O)c2ccc(O)cc2)CSC1=S` (stereo partly drawn), the TGI was > 100 µM.

For `O=P1(c2ccccc2)CCCCC1`, the TGI was > 100 µM.

A further assay relates to SK-OV-3 ovarian. Briefly: NCI anticancer screen, dose series, 48 h.
Consider `O=[N+]([O-])c1ccc(N2N=C(c3ccc(NCc4nc5ccccc5[nH]4)cc3)CC2c2ccco2)cc1` (stereo not drawn), for which the TGI was > 100 µM.

Turning to `CC(=O)O/C(=C1\C[C@H]2[C@@H]3CC=C4C[C@@H](OC(C)=O)CC[C@]4(C)[C@H]3CC[C@]2(C)C1=O)C(F)(F)F`, the TGI came to 44.5 µM.

As for `CCCN1CN(C(C(=O)N[C@@H]2C(=O)N3C2SC(C)(C)C3C(=O)O)c2ccc(O)cc2)CSC1=S` (stereo partly drawn), the TGI is > 100 µM.

Consider `O=P1(c2ccccc2)CCCCC1`, for which the TGI was > 100 µM.

The test system of the next assay is M14 melanoma. Description: NCI anticancer screen, dose series, 48 h.
`O=[N+]([O-])c1ccc(N2N=C(c3ccc(NCc4nc5ccccc5[nH]4)cc3)CC2c2ccco2)cc1` (stereo not drawn) returned a TGI of 61.3 µM.

`CC(=O)O/C(=C1\C[C@H]2[C@@H]3CC=C4C[C@@H](OC(C)=O)CC[C@]4(C)[C@H]3CC[C@]2(C)C1=O)C(F)(F)F` showed a TGI of 15.2 µM.

In the case of `CCCN1CN(C(C(=O)N[C@@H]2C(=O)N3C2SC(C)(C)C3C(=O)O)c2ccc(O)cc2)CSC1=S` (stereo partly drawn), the TGI was > 100 µM.

As for `O=P1(c2ccccc2)CCCCC1`, the TGI is > 100 µM.

The subject of the next assay is 786-0 renal. Description: NCI anticancer screen, dose series, 48 h.
`O=[N+]([O-])c1ccc(N2N=C(c3ccc(NCc4nc5ccccc5[nH]4)cc3)CC2c2ccco2)cc1` (stereo not drawn): the TGI was > 100 µM.

`CC(=O)O/C(=C1\C[C@H]2[C@@H]3CC=C4C[C@@H](OC(C)=O)CC[C@]4(C)[C@H]3CC[C@]2(C)C1=O)C(F)(F)F` registered a TGI of 20.6 µM.

In the case of `CCCN1CN(C(C(=O)N[C@@H]2C(=O)N3C2SC(C)(C)C3C(=O)O)c2ccc(O)cc2)CSC1=S` (stereo partly drawn), the TGI is > 100 µM.

As to `O=P1(c2ccccc2)CCCCC1`, the TGI is > 100 µM.

The test system of the next assay is K-562 leukemia. Description: NCI anticancer screen, dose series, 48 h.
For the compound `O=[N+]([O-])c1ccc(N2N=C(c3ccc(NCc4nc5ccccc5[nH]4)cc3)CC2c2ccco2)cc1` (stereo not drawn), the TGI is > 100 µM.

The compound `CC(=O)O/C(=C1\C[C@H]2[C@@H]3CC=C4C[C@@H](OC(C)=O)CC[C@]4(C)[C@H]3CC[C@]2(C)C1=O)C(F)(F)F` yielded a TGI of 15.1 µM.

Consider `CCCN1CN(C(C(=O)N[C@@H]2C(=O)N3C2SC(C)(C)C3C(=O)O)c2ccc(O)cc2)CSC1=S` (stereo partly drawn), for which the TGI was > 100 µM.

With `O=P1(c2ccccc2)CCCCC1`, the TGI is > 100 µM.

The subject of another assay is HOP-18 NSCLC. Description: NCI anticancer screen, dose series, 48 h.
In the case of `O=[N+]([O-])c1ccc(N2N=C(c3ccc(NCc4nc5ccccc5[nH]4)cc3)CC2c2ccco2)cc1` (stereo not drawn), the TGI was > 100 µM.

In the case of `CCCN1CN(C(C(=O)N[C@@H]2C(=O)N3C2SC(C)(C)C3C(=O)O)c2ccc(O)cc2)CSC1=S` (stereo partly drawn), the TGI was > 100 µM.

As for `O=P1(c2ccccc2)CCCCC1`, the TGI was > 100 µM.

The test system of the next assay is A498 renal. Description: NCI anticancer screen, dose series, 48 h.
For the compound `O=[N+]([O-])c1ccc(N2N=C(c3ccc(NCc4nc5ccccc5[nH]4)cc3)CC2c2ccco2)cc1` (stereo not drawn), the TGI was > 100 µM.
